# Patent US5041567A, “Antibacterial monic acid derivatives” (Beecham Group plc, priority 1982, dated 1991)
# Like-named read-outs stand apart in the source and are kept apart here.
# Columns and labels:
# [1] = system: M. suipneumoniae JF 435; assay: MIC against mycoplasma in vitro; format: cell-based; settings: Mesomycoplasma hyopneumoniae, JF435, 144 h
# [2] = system: M. suipneumoniae Str. 11; assay: MIC against mycoplasma in vitro; format: cell-based; settings: Mesomycoplasma hyopneumoniae
# [3] = system: M. suipneumoniae PW/C/210; assay: MIC against mycoplasma in vitro; format: cell-based; settings: Mesomycoplasma hyopneumoniae, 144 h
# [4] = system: M. suipneumoniae NCTC 10110; assay: MIC against mycoplasma in vitro; format: cell-based; settings: Mesomycoplasma hyopneumoniae, NCTC10110, 144 h
# [5] = system: M. dispar NCTC 10125; assay: MIC against mycoplasma in vitro; format: cell-based; settings: 144 h
# [6] = system: M. gallisepticum S6; assay: MIC against mycoplasma in vitro; format: cell-based; settings: Mycoplasmoides gallisepticum
# [7] = system: M. pneumoniae ATCC 15492; assay: MIC against mycoplasma in vitro; format: cell-based; settings: Mycoplasmoides pneumoniae, ATCC15492, 144 h
# [8] = system: E. coli NCTC 10418; assay: MIC against human bacteria in vitro; format: cell-based; settings: Escherichia coli
# [9] = system: E. coli ESS; assay: MIC against human bacteria in vitro; format: cell-based; settings: Escherichia coli
# [10] = system: Pasteurella multocida 1633; assay: MIC against human bacteria in vitro; format: cell-based
# [11] = system: Haemophilus influenzae Q1; assay: MIC against human bacteria in vitro; format: cell-based
# [12] = system: Bacillus subtilis 6633; assay: MIC against human bacteria in vitro; format: cell-based
# [13] = system: Staph. aureus Oxford; assay: MIC against human bacteria in vitro; format: cell-based; settings: Staphylococcus aureus
# [14] = system: Strep. pyogenes R80/421-A; assay: MIC against human bacteria in vitro; format: cell-based; settings: Streptococcus pyogenes
# [15] = system: Strep. spp. 64/848-C; assay: MIC against human bacteria in vitro; format: cell-based
# [16] = system: E. coli NCTC 10418; assay: MIC against veterinary bacteria in vitro; settings: Escherichia coli, NCTC10418, 18 h
# Description: (§1) The activity of the compounds of the Examples against various veterinarily important bacteria, was assayed in vitro using two-fold serial dilutions in Diagnostic Sensitivity Test Agar inoculated with 10^4 organisms.
# [17] = system: E. coli E1; assay: MIC against veterinary bacteria in vitro; settings: Escherichia coli, E1, 18 h
# Description: as §1
# [18] = system: S. dublin S7; assay: MIC against veterinary bacteria in vitro; settings: Salmonella enterica, S7, 18 h
# Description: as §1
# [19] = system: S. typhimurium S18; assay: MIC against veterinary bacteria in vitro; settings: Salmonella enterica, TYPHIMURIUM, 18 h
# Description: as §1
# [20] = system: Staph. aureus 152 (pen. sens); assay: MIC against veterinary bacteria in vitro; settings: Staphylococcus aureus, 18 h
# Description: as §1
# [21] = system: Staph. aureus Oxford; assay: MIC against veterinary bacteria in vitro; settings: Staphylococcus aureus, 18 h
# Description: as §1
# [22] = system: Strep. uberis SPU1; assay: MIC against veterinary bacteria in vitro; settings: Streptococcus uberis, SPU1, 18 h
# Description: as §1
# [23] = system: Strep. agalactiae SPA1; assay: MIC against veterinary bacteria in vitro; settings: Streptococcus agalactiae, SPA1, 18 h
# Description: as §1
# [24] = M. suipneumoniae JF 435, 6 days, 37° C., read-out: MIC
# [25] = M. suipneumoniae NCTC 10110, 6 days, 37° C., read-out: MIC
# [26] = M. dispar NCTC 10125, 6 days, 37° C., read-out: MIC
# [27] = 144 h, M. gallisepticum S6, 6 days, 37° C., read-out: MIC
# [28] = M. pneumoniae ATCC 15492, 6 days, 37° C., read-out: MIC
# [29] = NCTC10418, E. coli NCTC 10418, agar with 5% chocolated horse blood, 18 hours, 37° C., read-out: MIC
# [30] = E. coli ESS, 5% chocolated horse blood agar, 18 hours, read-out: MIC
# [31] = Pasteurella multocida 1633, 5% chocolated horse blood agar, 18 hours, read-out: MIC
# [32] = Haemophilus influenzae Q1, 5% chocolated horse blood agar, 18 hours, read-out: MIC
# [33] = Bacillus subtilis 6633, 5% chocolated horse blood agar, 18 hours, read-out: MIC
# [34] = Staph. aureus Oxford, 5% chocolated horse blood agar, 18 hours, read-out: MIC
# [35] = Strep. pyogenes R80/421-A, 5% chocolated horse blood agar, 18 hours, read-out: MIC
# [36] = Strep. spp. 64/848-C, 5% chocolated horse blood agar, 18 hours, read-out: MIC
# [37] = 144 h, M. suipneumoniae Str. 11, 6 days, 37° C., read-out: MIC
# [38] = M. suipneumoniae PW/C/210, 6 days, 37° C., read-out: MIC
# [39] = Pasteurella multocida, 1633, 18 h
# [40] = Haemophilus influenzae, Q1, 18 h
Compound,"MIC [1, 24] [µg/mL]","MIC [4, 25] [µg/mL]","MIC [5, 26] [µg/mL]","MIC [6, 27] [µg/mL]","MIC [8, 29] [µg/mL]","MIC [9, 30] [µg/mL]","MIC [10, 31] [µg/mL]","MIC [11, 32] [µg/mL]","MIC [12, 33] [µg/mL]","MIC [13, 34] [µg/mL]","MIC [14, 35] [µg/mL]","MIC [15, 36] [µg/mL]",MIC [16] [µg/mL],MIC [17] [µg/mL],MIC [18] [µg/mL],MIC [19] [µg/mL],MIC [20] [µg/mL],MIC [21] [µg/mL],MIC [22] [µg/mL],MIC [23] [µg/mL],also measured
"C/C(=C\c1ncc(-c2ccccc2)o1)C[C@@H]1OC[C@H](C[C@@H]2O[C@H]2[C@@H](C)[C@H](C)O)[C@@H](O)[C@H]1O [Example 1, 2-(1-normon-2-yl)-5-phenyloxazole A]",1,1,0.1,2.5,> 100,10,10,1,2.5,5,1,2.5,> 80,> 80,> 80,> 80,1.25,1.25,0.625,1.25,"MIC ([2]; STR.11, 144 h): 0.5 µg/mL; MIC [3]: 0.5 µg/mL; MIC [7, 28]: 2.5 µg/mL"
"C/C(=C/c1ncc(-c2ccccc2)o1)C[C@@H]1OC[C@H](C[C@@H]2O[C@H]2[C@@H](C)[C@H](C)O)[C@@H](O)[C@H]1O [Example 2, 2-{3-[5-(2,3-epoxy-5-hydroxy-4-methylhexyl)-3,4-dihydroxytetrahydropyran-2-yl]-2-methylprop-1(Z)-enyl}-5-phenyloxazole]",> 10,10,2.5,> 10,–,25,–,12.5,25,25,–,–,> 80,> 80,> 80,> 80,20,20,5,20,"MIC [2, 37]: 10 µg/mL; MIC [3, 38]: 5 µg/mL; MIC ([8]; NCTC10418, 18 h): > 50 µg/mL; MIC [10, 39]: > 50 µg/mL; MIC ([14]; R80/421A, 18 h): > 50 µg/mL; MIC ([15]; 18 h): > 50 µg/mL"
"C/C(=C\c1ncc(-c2ccc([N+](=O)[O-])cc2)o1)C[C@@H]1OC[C@H](C[C@@H]2O[C@H]2[C@@H](C)[C@H](C)O)[C@@H](O)[C@H]1O [Example 3, 5-p-nitro-phenyl-2-(1-normon-2-yl)-oxazole A]",0.25,0.25,0.05,0.5,> 100,0.5,0.5,0.1,0.5,0.2,0.5,0.5,> 80,> 80,> 80,> 80,0.312,0.312,0.039,1.25,"MIC [2, 37]: 0.1 µg/mL; MIC [3, 38]: 0.1 µg/mL; MIC [7, 28]: 0.5 µg/mL"
"COc1ccc(-c2cnc(/C=C(\C)C[C@@H]3OC[C@H](C[C@@H]4O[C@H]4[C@@H](C)[C@H](C)O)[C@@H](O)[C@H]3O)o2)cc1 [Example 4, 5-p-methoxyphenyl-2-(1-normon-2-yl)oxazole A]",–,–,–,2.5,> 100,2.5,25,2.5,5,2.5,5,5,> 80,> 80,> 80,> 80,5,0.625,0.312,–,"MIC [1]: 1 µg/mL; MIC ([2]; STR.11, 144 h): 0.5 µg/mL; MIC [3]: 0.5 µg/mL; MIC [4]: 1 µg/mL; MIC [5]: 0.25 µg/mL"
"COC(=O)CCCCCCCc1cnc(/C=C(\C)C[C@@H]2OC[C@H](C[C@@H]3O[C@H]3[C@@H](C)[C@H](C)O)[C@@H](O)[C@H]2O)o1 [Example 7, 5-(7-Methoxycarbonylheptyl)-2-(1-normon-2-yl)oxazole A]",> 10,10,2.5,> 10,–,–,–,–,–,–,25,–,> 80,> 80,> 80,> 80,5,5,1.25,5,"MIC [2, 37]: 10 µg/mL; MIC [3, 38]: 10 µg/mL; MIC [7, 28]: > 10 µg/mL; MIC ([8]; NCTC10418, 18 h): > 100 µg/mL; MIC ([9]; 18 h): 0.5 µg/mL; MIC [10, 39]: 2.5 µg/mL; MIC [11, 40]: 0.5 µg/mL; MIC ([12]; Bacillus subtilis, 6633, 18 h): 2.5 µg/mL; MIC ([15]; 18 h): 10 µg/mL"
"CSc1ccc(-c2cnc(/C=C(\C)C[C@@H]3OC[C@H](C[C@@H]4O[C@H]4[C@@H](C)[C@H](C)O)[C@@H](O)[C@H]3O)o2)cc1 [Example 9, 5-p-methylthiophenyl-2-(1-normon-2-yl)oxazole A]",–,–,–,–,–,–,–,–,–,–,10,–,> 80,> 80,> 80,> 80,0.625,0.625,0.16,10,"MIC [1]: 0.5 µg/mL; MIC ([2]; STR.11, 144 h): 0.5 µg/mL; MIC [3]: 0.5 µg/mL; MIC [4]: 0.5 µg/mL; MIC [5]: 0.1 µg/mL; MIC ([6]; S6, 144 h): 1 µg/mL; MIC [7]: 1 µg/mL; MIC ([8]; NCTC10418, 18 h): > 100 µg/mL; MIC ([9]; 18 h): 5 µg/mL; MIC [10, 39]: 5 µg/mL; MIC [11, 40]: 5 µg/mL; MIC ([12]; Bacillus subtilis, 6633, 18 h): 1 µg/mL; MIC ([13]; 18 h): 2.5 µg/mL; MIC ([15]; 18 h): 5 µg/mL"
C/C(=C\c1ncc(-c2ccc(S(C)(=O)=O)cc2)o1)C[C@@H]1OC[C@H](C[C@@H]2O[C@H]2[C@@H](C)[C@H](C)O)[C@@H](O)[C@H]1O [Example 10],–,–,–,–,> 128,8,8,–,2,8,8,4,> 80,> 80,> 80,> 80,2.5,2.5,0.625,2.5,"MIC [1]: 0.05 µg/mL; MIC ([2]; STR.11, 144 h): 0.025 µg/mL; MIC [3]: 0.025 µg/mL; MIC [4]: 0.05 µg/mL; MIC [5]: 0.025 µg/mL; MIC ([6]; S6, 144 h): 0.1 µg/mL; MIC [7]: 0.1 µg/mL; MIC [11, 40]: 1 µg/mL"
"C/C(=C\c1ncc(-c2ccc([S+](C)[O-])cc2)o1)C[C@@H]1OC[C@H](C[C@@H]2O[C@H]2[C@@H](C)[C@H](C)O)[C@@H](O)[C@H]1O (stereo partly drawn) [Example 11, 5-p-Methylsulphinylphenyl-2-(1-normon-2-yl) oxazole A]",0.25,0.25,0.1,0.5,> 128,128,8,2,4,16,4,2,> 80,> 80,> 80,> 80,2.5,2.5,0.312,2.5,"MIC [2, 37]: 0.1 µg/mL; MIC [3, 38]: 0.1 µg/mL; MIC [7, 28]: 0.5 µg/mL"
